Test results taken from patent publication US10562898B2, “Substituted benzenesulfonamides as inhibitors of alpha-4 beta-7 integrin activity” (EA PHARMA CO., LTD., priority 2016, dated 2020).

biological target: T1, α4β7 integrin (Homo sapiens, UniProt P13612+P26010); test: MAdCAM-1/α4β7 integrin binding inhibitory activity evaluation test (RPMI-8866 cells binding to MAdCAM-1/Fc); format: cell-based; details: recombinant mouse MAdCAM-1/Fc, no serum
T1 construct: a cell line RPMI-8866, which is known to express α4β7 integrin; endogenous in cells; host or cells: RPMI-8866 (human B cell line)
T1 sequence (P13612 34-1032): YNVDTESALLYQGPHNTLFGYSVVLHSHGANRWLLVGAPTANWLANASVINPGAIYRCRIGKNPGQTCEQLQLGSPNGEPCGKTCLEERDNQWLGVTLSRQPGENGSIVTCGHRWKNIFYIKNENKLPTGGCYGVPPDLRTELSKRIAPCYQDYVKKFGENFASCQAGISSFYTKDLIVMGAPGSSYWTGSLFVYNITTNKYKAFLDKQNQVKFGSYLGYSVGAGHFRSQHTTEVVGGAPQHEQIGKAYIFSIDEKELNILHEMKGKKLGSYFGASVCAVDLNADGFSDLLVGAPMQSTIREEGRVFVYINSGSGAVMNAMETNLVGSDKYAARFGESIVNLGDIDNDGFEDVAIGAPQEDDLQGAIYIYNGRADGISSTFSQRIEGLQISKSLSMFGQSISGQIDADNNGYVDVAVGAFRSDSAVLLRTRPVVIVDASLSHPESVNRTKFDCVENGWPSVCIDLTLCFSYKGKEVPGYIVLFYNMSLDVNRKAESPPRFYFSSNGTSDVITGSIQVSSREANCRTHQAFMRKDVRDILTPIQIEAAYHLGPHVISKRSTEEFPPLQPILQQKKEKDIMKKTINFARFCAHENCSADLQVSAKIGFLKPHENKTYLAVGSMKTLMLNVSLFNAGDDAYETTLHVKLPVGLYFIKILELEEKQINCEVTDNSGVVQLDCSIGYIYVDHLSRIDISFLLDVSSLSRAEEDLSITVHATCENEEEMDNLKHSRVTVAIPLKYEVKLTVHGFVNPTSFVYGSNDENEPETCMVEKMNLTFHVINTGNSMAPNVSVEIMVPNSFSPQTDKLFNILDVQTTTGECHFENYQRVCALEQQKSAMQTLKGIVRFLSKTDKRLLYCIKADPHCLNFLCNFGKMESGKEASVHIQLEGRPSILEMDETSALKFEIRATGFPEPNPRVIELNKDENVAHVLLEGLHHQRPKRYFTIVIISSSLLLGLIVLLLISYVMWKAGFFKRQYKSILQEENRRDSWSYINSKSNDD
T1 sequence (P26010 20-798): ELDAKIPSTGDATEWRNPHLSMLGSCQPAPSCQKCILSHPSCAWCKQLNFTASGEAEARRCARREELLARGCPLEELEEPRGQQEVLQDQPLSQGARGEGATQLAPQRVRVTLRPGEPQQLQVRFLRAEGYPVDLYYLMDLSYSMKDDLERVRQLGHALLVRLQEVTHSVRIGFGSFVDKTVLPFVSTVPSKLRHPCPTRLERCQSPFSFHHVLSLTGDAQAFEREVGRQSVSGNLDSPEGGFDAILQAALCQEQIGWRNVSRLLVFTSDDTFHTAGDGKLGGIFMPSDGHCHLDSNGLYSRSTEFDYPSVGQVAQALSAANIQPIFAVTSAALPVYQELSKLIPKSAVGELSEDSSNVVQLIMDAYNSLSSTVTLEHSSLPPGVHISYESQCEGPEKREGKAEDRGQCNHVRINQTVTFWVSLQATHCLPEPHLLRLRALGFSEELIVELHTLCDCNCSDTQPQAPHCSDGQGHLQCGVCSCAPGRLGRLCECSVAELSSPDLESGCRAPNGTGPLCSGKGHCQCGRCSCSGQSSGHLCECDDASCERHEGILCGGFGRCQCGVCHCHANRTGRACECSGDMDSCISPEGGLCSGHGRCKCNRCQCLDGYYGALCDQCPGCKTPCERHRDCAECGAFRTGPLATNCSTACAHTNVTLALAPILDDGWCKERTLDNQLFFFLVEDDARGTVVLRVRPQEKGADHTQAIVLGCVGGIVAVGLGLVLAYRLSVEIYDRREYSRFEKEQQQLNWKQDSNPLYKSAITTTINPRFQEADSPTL
Description: (2) MAdCAM-1/α4β7 Integrin Binding Inhibitory Activity Evaluation Test
Each test substance was measured in terms of an ability to inhibit the MAdCAM-1 binding of a human B cell line, namely, a cell line RPMI-8866, which is known to express α4β7 integrin.
A solution of recombinant mouse MAdCAM-1/Fc (R&D Systems, Inc.) (0.75 μg/mL) diluted with a buffer A (carbonate buffer, pH 9.6) was added in an amount of 50 μL/well to a 96-well microtiter plate, followed by incubation at 4° C. overnight. After the plate was washed with PBS once, 150 μL/well of Block Ace (Snow Brand Milk Products Co., Ltd.) was added, followed by incubation at room temperature for 2 hours. After removal, the plate was washed with PBS once.
Then, 100 μL of the RPMI-8866 cells (2×10^6 cells/mL) and 100 μL of the test substance at each of various concentrations diluted with a binding buffer (DMEM containing 40 mM HEPES, 0.2% BSA, and 4 mM MnCl2) were added on the plate coated with the MAdCAM-1/Fc (5×10^5 cells/well), followed by incubation at 30° C. for 15 to 60 minutes. After the cells were bound to the wells, the plate was washed with PBS to remove unbound cells. A buffer C (PBS containing 1.5% Triton X-100) in an amount 50 μL/well was added to the plate to lyse the bound RPMI-8866 cells. After 30 μL of a substrate buffer (Promega, CytoTox 96 Non-Radioactive Cytotoxicity Assay) was added to 30 μL of the cell lysate, a reaction was allowed to proceed at room temperature in the dark for 30 minutes. After 30 μL of a stop solution (Promega, CytoTox 96 Non-Radioactive Cytotoxicity Assay) was added to each, and then an absorbance at 490 nm was measured using a plate reader. The absorbance obtained here represents a detection result of an activity of lactate dehydrogenase (LDH) eluted in the supernatant of each well, that is, the absorbance is proportional to the number of RPMI-8866 cells bound to the MAdCAM-1 and thus remaining on the plate. The test was performed in duplicate. Provided that the absorbance of the well containing no test substance was 100%, a cell binding rate with the test substance at each of the various concentrations was figured out, and a concentration IC50 which brought about 50% binding inhibition was calculated.

IC50 | Compound
1.2 nM | CC(=O)Nc1ccc(S(=O)(=O)Nc2cc(F)c(C(=O)N[C@@H](Cc3ccc(-n4c(=O)c5ccncc5n(C)c4=O)cc3)C(=O)O)cc2F)cc1 [Compound A2]
0.62 nM | Cc1c(C)n(C)c(=O)n(-c2ccc(C[C@H](NC(=O)c3cc(F)c(NS(=O)(=O)c4ccc(NC(=O)C(C)(C)C)cn4)cc3F)C(=O)O)cn2)c1=O [Compound A32]
0.45 nM | Cn1c(=O)n(-c2ccc(C[C@H](NC(=O)c3cc(F)c(NS(=O)(=O)c4ccc(NC(=O)C(C)(C)C)c(F)c4)cc3F)C(=O)O)cc2)c(=O)c2ccncc21 [Compound A12]
0.38 nM | Cn1c(=O)n(-c2ccc(C[C@H](NC(=O)c3cc(F)c(NS(=O)(=O)c4ccc(NC(=O)C5CCOCC5)cc4)cc3F)C(=O)O)cc2)c(=O)c2ccncc21 [Compound A14]
3.4 nM | Cn1ccc(=O)n(-c2ccc(C[C@H](NC(=O)c3cc(F)c(NS(=O)(=O)c4ccc(NC(=O)C(C)(C)C)cc4)cc3F)C(=O)O)nc2)c1=O [Compound A70]
3.3 nM | Cn1c(C(F)(F)F)cc(=O)n(-c2ccc(C[C@H](NC(=O)c3cc(F)c(NS(=O)(=O)c4ccc(NC(=O)C(C)(C)C)cc4)cc3F)C(=O)O)cn2)c1=O [Compound A66]
2 nM | Cc1cn(C)c(=O)n(-c2ccc(C[C@H](NC(=O)c3cc(F)c(NS(=O)(=O)c4cc5cc(NC(=O)C(C)(C)C)ccc5[nH]4)cc3F)C(=O)O)cn2)c1=O [Compound A76]
1.2 nM | Cc1cn(C)c(=O)n(-c2ccc(C[C@H](NC(=O)c3cc(F)c(NS(=O)(=O)c4ccc(NC(=O)C5(C(F)(F)F)CC5)cc4)cc3F)C(=O)O)cn2)c1=O [Compound A56]
0.29 nM | CN1CCc2c(n(C)c(=O)n(-c3ccc(C[C@H](NC(=O)c4cc(F)c(NS(=O)(=O)c5ccc(NC(=O)C(C)(C)C)cc5)cc4F)C(=O)O)cc3)c2=O)C1 [Compound A41]
0.25 nM | Cc1c(C)n(C)c(=O)n(-c2ccc(C[C@H](NC(=O)c3cc(F)c(NS(=O)(=O)c4ccc(NC(=O)C5(C(F)(F)F)CC5)cc4)cc3F)C(=O)O)cc2)c1=O [Compound A20]
0.94 nM | COc1cc2c(=O)n(-c3ccc(C[C@H](NC(=O)c4cc(F)c(NS(=O)(=O)c5ccc(NC(=O)C(C)(C)C)cc5)cc4F)C(=O)O)cc3)c(=O)n(C)c2cn1 [Compound A36]
0.39 nM | Cc1c(C)n(C)c(=O)n(-c2ccc(C[C@H](NC(=O)c3cc(F)c(NS(=O)(=O)c4ccc(NC(=O)C(C)(C)C)cn4)cc3F)C(=O)O)cc2)c1=O [Compound A19]
2 nM | Cc1c(C)n(C(C)C)c(=O)n(-c2ccc(C[C@H](NC(=O)c3cc(F)c(NS(=O)(=O)c4ccc(NC(=O)C(C)(C)C)cc4)cc3F)C(=O)O)cc2)c1=O [Compound A48]
2.3 nM | Cc1cn(C)c(=O)n(-c2ccc(C[C@H](NC(=O)c3cc(F)c(NS(=O)(=O)c4ccc(NC(=O)C5(C#N)CC5)cc4)cc3F)C(=O)O)cn2)c1=O [Compound A60]
2.2 nM | Cn1ccc(=O)n(-c2ccc(C[C@H](NC(=O)c3cc(F)c(NS(=O)(=O)c4ccc(NC(=O)C5(C(F)(F)F)CC5)cc4)cc3F)C(=O)O)cn2)c1=O [Compound A55]
2 nM | Cn1ccc(=O)n(-c2ccc(C[C@H](NC(=O)c3cc(F)c(NS(=O)(=O)c4ccc(NC(=O)C(C)(C)C)cc4)cc3F)C(=O)O)cn2)c1=O [Compound A53]
7.8 nM | Cc1cn(C)c(=O)n(-c2ccc(C[C@H](NC(=O)c3cc(F)c(NS(=O)(=O)c4ccc5c(NC(=O)C(C)(C)C)c[nH]c5c4)cc3F)C(=O)O)cn2)c1=O [Compound A74]
3.6 nM | Cc1cn(C)c(=O)n(-c2ccc(C[C@H](NC(=O)c3cc(F)c(NS(=O)(=O)c4c[nH]c5cc(NC(=O)C(C)(C)C)ccc45)cc3F)C(=O)O)cn2)c1=O [Compound A77]
0.93 nM | Cc1c(C)n(C)c(=O)n(-c2ccc(C[C@H](NC(=O)c3cc(F)c(NS(=O)(=O)c4ccc(NC(=O)C5CCOCC5)cc4)cc3F)C(=O)O)cc2)c1=O [Compound A15]
2 nM | Cc1c(C)n(C)c(=O)n(-c2ccc(C[C@H](NC(=O)c3cc(F)c(NS(=O)(=O)c4cc(NC(=O)C(C)(C)C)cs4)cc3F)C(=O)O)cc2)c1=O [Compound A11]
0.85 nM | CCC(CC)C(=O)Nc1ccc(S(=O)(=O)Nc2cc(F)c(C(=O)N[C@@H](Cc3ccc(-n4c(=O)c(C)c(C)n(C)c4=O)cc3)C(=O)O)cc2F)cc1 [Compound A4]
0.42 nM | Cn1cnc2c1c(=O)n(-c1ccc(C[C@H](NC(=O)c3cc(F)c(NS(=O)(=O)c4ccc(NC(=O)C(C)(C)C)cc4)cc3F)C(=O)O)cc1)c(=O)n2C [Compound A43]
0.55 nM | COC1(C(=O)Nc2ccc(S(=O)(=O)Nc3cc(F)c(C(=O)N[C@@H](Cc4ccc(-n5c(=O)c(C)c(C)n(C)c5=O)cc4)C(=O)O)cc3F)cc2)CC1 [Compound A17]
5.2 nM | CN1C(=O)N(c2ccc(S(=O)(=O)Nc3cc(F)c(C(=O)N[C@@H](Cc4ccc(-n5c(=O)c6ccncc6n(C)c5=O)nc4)C(=O)O)cc3F)cc2)C(=O)C1(C)C [Compound A38]
1.1 nM | Cc1cn(C)c(=O)n(-c2ccc(C[C@H](NC(=O)c3cc(F)c(NS(=O)(=O)c4ccc(NC(=O)C(C)(C)C)cc4)cc3F)C(=O)O)cc2)c1=O [Compound A37]
3.1 nM | Cc1c(CO)c(=O)n(-c2ccc(C[C@H](NC(=O)c3cc(F)c(NS(=O)(=O)c4ccc(NC(=O)C(C)(C)C)cc4)cc3F)C(=O)O)cc2)c(=O)n1C [Compound A51]
0.36 nM | Cn1c(=O)n(-c2ccc(C[C@H](NC(=O)c3cc(F)c(NS(=O)(=O)c4ccc(NC(=O)C(C)(C)CO)cc4)cc3F)C(=O)O)cc2)c(=O)c2ccncc21 [Compound A18]
0.41 nM | Cn1c(=O)n(-c2ccc(C[C@H](NC(=O)c3cc(F)c(NS(=O)(=O)c4ccc(NC(=O)C(C)(C)C)s4)cc3F)C(=O)O)cc2)c(=O)c2ccncc21 [Compound A9]
0.36 nM | Cn1c(=O)n(-c2ccc(C[C@H](NC(=O)c3cc(F)c(NS(=O)(=O)c4ccc(NC(=O)c5ccncc5)cc4)cc3F)C(=O)O)cc2)c(=O)c2ccncc21 [Compound A7]
